Experiments:
in vitro [1] = details: human, MRC5 SV2 cells
Description: Selectivity index, ratio of IC50 for human MRC5 SV2 cells to IC50 for Trypanosoma cruzi Tulahuen CL2 amastigotes infected in human MRC5 SV2 cells

in vitro [2] = details: mouse, liver microsomes
Description: Metabolic stability in mouse liver microsomes assessed as fraction unbound at 0.5 uM incubated for 30 mins by LC-MS/MS analysis

in vitro [3] = details: mouse, peritoneal macrophages
Description: (§1) Cytotoxicity against mouse peritoneal Macrophage cells assessed as reduction in cell viability incubated for 3 days by fluorimetry

in vitro [4] = details: human, MRC5 SV2 cells; remark: listed apart in the source
Description: (§2) Cytotoxicity against human MRC5 SV2 cells assessed as reduction in cell viability incubated for 3 days by fluorimetry

Macrophage = experiment: cells; details: Mus musculus, 72 h
Description: as §1

in vitro [5] = details: PAMPA
Description: Effective permeability of compound by PAMPA assay

in vitro [6] = details: human, liver microsomes
Description: Metabolic stability in human liver microsomes assessed as intrinsic clearance at 0.5 uM incubated for 30 mins by LC-MS/MS analysis

in vitro [7] = details: mouse, liver microsomes; remark: listed apart in the source
Description: Metabolic stability in mouse liver microsomes assessed as intrinsic clearance at 0.5 uM incubated for 30 mins by LC-MS/MS analysis

Trypanosoma brucei = experiment: microbe, parasite or virus in culture; details: Squib 427, 72 h
Description: Antitrypanosomal activity against Trypanosoma brucei Squib 427 assessed as reduction in parasite growth incubated for 72 hrs by resazurin dye based fluorimetric analysis

physchem = details: buffer, pH 7.4
Description: Lipophilicity, logD of compound at pH 7.4 by HPLC analysis

[8] = tested on: Trypanosoma brucei rhodesiense; experiment: microbe, parasite or virus in culture; details: STIB900, 72 h
Description: Antiprotozoal activity against Trypanosoma brucei rhodesiense STIB900 trypomastigotes incubated for 72 hrs by resazurin dye based fluorimetric analysis

Trypanosoma cruzi = experiment: microbe, parasite or virus in culture; details: Tulahuen CL2, MRC-5 SV2, 168 h
Description: Antitrypanosomal activity against Trypanosoma cruzi Tulahuen CL2 amastigotes infected in human MRC5 SV2 cells incubated for 7 days by chlorophenol red beta-D-galactopyranoside substrate based spectrophotometric assay

Leishmania infantum = experiment: microbe, parasite or virus in culture; details: for IC50: MHOM/MA(BE)/67/ITMAP263, 120 h; for IC90: MHOM/MA(BE)/67/ITMAP263, in Mus musculus, 120 h
Description: Antileishmanial activity against amastigote stage of Leishmania infantum MHOM/MA(BE)/67/ITMAP263 infected in mouse peritoneal macrophage assessed as parasite growth inhibition incubated for 5 days by Giemsa staining based assay

cells = details: Homo sapiens, MRC-5 SV2, 72 h
Description: as §2

SMILES	selectivity ratio (in vitro [1])	fraction unbound at 0.5 h, 0.5 µM (in vitro [2])	IC90 at 72 h (in vitro [3])	IC90 at 72 h (in vitro [4])	IC50 (Macrophage)	Papp (in vitro [5])	CLint scaled at 0.5 h, 0.5 µM (in vitro [6])	microsomal CLint at 0.5 h, 0.5 µM (in vitro [6])	CLint scaled at 0.5 h, 0.5 µM (in vitro [7])	microsomal CLint at 0.5 h, 0.5 µM (in vitro [7])	IC50 (Trypanosoma brucei)	IC90 (Trypanosoma brucei)	logD (physchem)	IC50 [8]	IC90 [8]	IC50 (Trypanosoma cruzi)	IC90 (Trypanosoma cruzi)	IC50 (Leishmania infantum)	IC90 (Leishmania infantum)	IC50 (cells)
O=C(c1cc(C(F)(F)F)no1)N1CCOC(c2cc3ncccc3[nH]2)C1 (stereo not drawn)	1.8	0.825	64 µM	64 µM	64 µM	4.3 ×10⁻⁶ cm/s	118 mL/min/kg	89.8 µL/min/mg	529 mL/min/kg	137 µL/min/mg	64 µM	64 µM	2.89	64 µM	64 µM	35.7 µM	64 µM	64 µM	64 µM	64 µM
O=C(Cc1ccccc1)N1CCN(c2nc3ccccc3s2)CC1	1.59	0.647	64 µM	64 µM	64 µM	15.3 ×10⁻⁶ cm/s	210 mL/min/kg	126 µL/min/mg	–	–	64 µM	64 µM	3.65	56 µM	64 µM	40 µM	62.9 µM	64 µM	64 µM	64 µM
O=C(c1cc(C2CC2)no1)N1CCOC(c2cc3ncccc3[nH]2)C1 (stereo not drawn)	1.85	0.896	64 µM	64 µM	64 µM	3.18 ×10⁻⁶ cm/s	< 27.8 mL/min/kg	< 23 µL/min/mg	279 mL/min/kg	78.3 µL/min/mg	64 µM	64 µM	2.4	64 µM	64 µM	34.6 µM	63.5 µM	64 µM	64 µM	64 µM
O=C(c1ccccc1)N1CCC(c2cc3ncccc3[nH]2)CC1	2.86	0.738	64 µM	64 µM	64 µM	0.94 ×10⁻⁶ cm/s	< 33.3 mL/min/kg	< 23 µL/min/mg	4520 mL/min/kg	1040 µL/min/mg	64 µM	64 µM	2.68	64 µM	64 µM	22.4 µM	56.1 µM	64 µM	64 µM	64 µM
O=C(c1ccc(C(F)(F)F)nc1)N1CCCC(c2cc3ncccc3[nH]2)C1 (stereo not drawn)	–	0.6	64 µM	64 µM	64 µM	0.887 ×10⁻⁶ cm/s	50.3 mL/min/kg	27.9 µL/min/mg	132 mL/min/kg	24.9 µL/min/mg	64 µM	64 µM	2.68	64 µM	64 µM	64 µM	64 µM	64 µM	64 µM	64 µM
CC(C)(C)OC(=O)N1CCCC(c2cn3cccnc3n2)C1 (stereo not drawn)	–	0.836	64 µM	64 µM	64 µM	7.69 ×10⁻⁶ cm/s	49 mL/min/kg	38 µL/min/mg	3290 mL/min/kg	861 µL/min/mg	64 µM	64 µM	2.58	64 µM	64 µM	64 µM	64 µM	64 µM	64 µM	64 µM
COc1cc(C(=O)N2CCCC(c3cc4ncccc4[nH]3)C2)on1 (stereo not drawn)	7.9	0.688	64 µM	64 µM	64 µM	6.36 ×10⁻⁶ cm/s	57.8 mL/min/kg	36.9 µL/min/mg	601 mL/min/kg	129 µL/min/mg	64 µM	64 µM	2.44	64 µM	64 µM	8.1 µM	15.2 µM	64 µM	64 µM	64 µM
O=C(c1ccccc1)N1CCCC(c2cn3ncccc3n2)C1 (stereo not drawn)	–	0.877	64 µM	64 µM	64 µM	13.9 ×10⁻⁶ cm/s	167 mL/min/kg	135 µL/min/mg	10500 mL/min/kg	2900 µL/min/mg	64 µM	64 µM	2.39	64 µM	64 µM	64 µM	64 µM	64 µM	64 µM	64 µM
O=C(c1cc(C(F)(F)F)n[nH]1)N1CCCC(c2cc3ncccc3[nH]2)C1 (stereo not drawn)	–	0.493	64 µM	64 µM	64 µM	0.881 ×10⁻⁶ cm/s	278 mL/min/kg	127 µL/min/mg	832 mL/min/kg	128 µL/min/mg	64 µM	64 µM	3.07	64 µM	64 µM	64 µM	64 µM	64 µM	64 µM	64 µM
Nc1cc(C2CCCN(C(=O)c3ccccc3)C2)[nH]n1 (stereo not drawn)	–	0.684	64 µM	64 µM	64 µM	1.42 ×10⁻⁶ cm/s	< 36.7 mL/min/kg	< 23 µL/min/mg	< 108 mL/min/kg	< 23 µL/min/mg	64 µM	64 µM	1.09	64 µM	64 µM	64 µM	64 µM	64 µM	64 µM	64 µM
O=C1c2ccccc2CN1CCc1cc2ncccc2[nH]1	–	0.626	64 µM	64 µM	64 µM	0.504 ×10⁻⁶ cm/s	119 mL/min/kg	69.1 µL/min/mg	1090 mL/min/kg	213 µL/min/mg	64 µM	64 µM	2.19	64 µM	64 µM	64 µM	64 µM	64 µM	64 µM	64 µM
O=C(c1ccccc1)N1CCCC(c2cc3ncccn3n2)C1 (stereo not drawn)	–	0.211	64 µM	64 µM	64 µM	16.5 ×10⁻⁶ cm/s	468 mL/min/kg	91.3 µL/min/mg	19200 mL/min/kg	1270 µL/min/mg	64 µM	64 µM	2.3	64 µM	64 µM	64 µM	64 µM	64 µM	64 µM	64 µM
Nc1cc(C2CCCN(C(=O)c3cc(C(F)(F)F)no3)C2)[nH]n1 (stereo not drawn)	–	0.991	64 µM	64 µM	64 µM	3.76 ×10⁻⁶ cm/s	< 26.7 mL/min/kg	< 23 µL/min/mg	175 mL/min/kg	54.3 µL/min/mg	64 µM	64 µM	1.77	64 µM	64 µM	64 µM	64 µM	64 µM	64 µM	64 µM
Cn1nccc1C(=O)N1CCCC(c2cc3ncccc3[nH]2)C1 (stereo not drawn)	–	0.89	64 µM	64 µM	64 µM	1.03 to 1.37 ×10⁻⁶ cm/s	33.5 mL/min/kg	27.5 µL/min/mg	115 mL/min/kg	31.9 µL/min/mg	64 µM	64 µM	1.8	64 µM	64 µM	64 µM	64 µM	64 µM	64 µM	64 µM
O=C(CCc1nc2cccnc2n1CCO)Nc1ccccc1	–	0.705	64 µM	64 µM	64 µM	3.98 ×10⁻⁶ cm/s	< 35 mL/min/kg	< 23 µL/min/mg	281 mL/min/kg	62.1 µL/min/mg	64 µM	64 µM	1.85	64 µM	64 µM	64 µM	64 µM	64 µM	64 µM	64 µM
